Columns and labels:
[1] = molecular target: T1, glutathione-S-transferase (GST) tagged LXRbeta LBD (ligand binding domain) (Homo sapiens, UniProt P55055); experiment: LanthaScreen TR-FRET Liver X Receptor Coactivator Assay, LXR beta-LBD; type: biochemical; conditions: for Emax: efficacy in relation to reference dual agonist T1317, read-out: LXR beta activity at max dose (%) (Emax); for EC50: potency (Inflection Point) of co-activator recruitment, TR-FRET, read-out: LXR beta IP
T1 construct: purchased Invitrogen pv4658.pps
T1 sequence (P55055 222-460 limits assumed): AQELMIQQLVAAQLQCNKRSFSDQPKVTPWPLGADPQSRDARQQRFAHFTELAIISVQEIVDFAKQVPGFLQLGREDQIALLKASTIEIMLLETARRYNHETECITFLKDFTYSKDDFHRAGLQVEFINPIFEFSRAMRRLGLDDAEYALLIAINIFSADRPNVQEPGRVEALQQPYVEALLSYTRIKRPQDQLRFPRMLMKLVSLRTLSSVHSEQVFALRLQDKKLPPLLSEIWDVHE
Protocol: (§1) While running the LanthaScreen™ TR-FRET Liver X Receptor Coactivator Assay, LXR alpha-LBD or LXR beta-LBD was added to ligand test compounds followed by addition of a mixture of a fluorescein-labelled coactivator peptide and terbium-conjugated anti-GST antibody. After an incubation period at room temperature, TR-FRET (time-resolved fluorescence resonance energy transfer) was measured using a filter-based instrument capable of TR-FRET, e.g. PerkinElmer Envision.

[2] = molecular target: T2, glutathione-S-transferase (GST) tagged LXRalpha LBD (ligand binding domain) (Homo sapiens, UniProt Q13133); experiment: LanthaScreen TR-FRET Liver X Receptor Coactivator Assay, LXR alpha-LBD; type: biochemical; conditions: for Emax: efficacy in relation to reference dual agonist T1317, read-out: LXR alpha activity at max dose (%) (Emax); for EC50 / LXR alpha IP (nM): potency (Inflection Point) of co-activator recruitment, TR-FRET; for EC50: read-out: LXR alpha IP
T2 construct: purchased Invitrogen pv4655
T2 sequence (Q13133 209-447 limits assumed): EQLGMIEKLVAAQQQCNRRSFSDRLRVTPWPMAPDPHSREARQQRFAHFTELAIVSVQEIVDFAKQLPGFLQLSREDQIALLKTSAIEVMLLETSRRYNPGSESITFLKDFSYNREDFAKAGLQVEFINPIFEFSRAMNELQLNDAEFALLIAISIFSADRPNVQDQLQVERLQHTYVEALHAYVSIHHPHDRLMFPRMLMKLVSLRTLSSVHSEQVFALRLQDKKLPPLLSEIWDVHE
Protocol: as §1

SMILES | Emax [1] [%] | EC50 [1] [nM] | Emax [2] [%] | EC50 [2] [nM] | LXR alpha IP (nM) [2]
CN(C)C(=O)c1ccc(-c2cnc(N3CCN(C(=O)[C@](O)(c4ccccc4)C(F)(F)F)CC3)c(C#N)c2)cc1Cl [Example 2-2, 2-chloro-4-(5-cyano-6-{4-[(2R)-3,3,3-trifluoro-2-hydroxy-2-phenylpropanoyl]piperazin-1-yl}pyridin-3-yl)-N,N-dimethylbenzamide] | 102 | 1 | 61 | 617 | –
CN(C)C(=O)c1ccc(-c2cnc(N3CCN(C(=O)C(C)(C)C)CC3)c(C#N)c2)cc1Cl [Example 2-3, 2-chloro-4-{5-cyano-6-[4-(2,2-dimethylpropanoyl)piperazin-1-yl]pyridin-3-yl}-N,N-dimethylbenzamide] | 105 | 56 | 67 | 4810 | –
CN(C)C(=O)c1ccc(-c2cnc(N3CCN(C(=O)C45CC(C4)C5)CC3)c(C#N)c2)cc1Cl [Example 2-4, 4-{6-[4-(bicyclo[1.1.1]pent-1-ylcarbonyl)piperazin-1-yl]-5-cyanopyridin-3-yl}-2-chloro-N,N-dimethylbenzamide] | 79 | 95 | 44 | 12800 | –
CCC(C)(C)C(=O)N1CCN(c2ncc(-c3ccc(C(=O)N(C)C)c(Cl)c3)cc2C#N)CC1 [Example 2-5, 2-chloro-4-{5-cyano-6-[4-(2,2-dimethylbutanoyl)piperazin-1-yl]pyridin-3-yl}-N,N-dimethylbenzamide] | 97 | 109 | 62 | 11100 | –
CN(C)C(=O)c1ccc(-c2cnc(N3CCN(C(=O)C4CCCCO4)CC3)c(C#N)c2)cc1Cl (stereo not shown) [Example 2-6, 2-chloro-4-{5-cyano-6-[4-(tetrahydro-2H-pyran-2-ylcarbonyl)piperazin-1-yl]pyridin-3-yl}-N,N-dimethylbenzamide] | 49 | 1560 | 16 | – | No IP
CN(C)C(=O)c1ccc(-c2cnc(N3CCN(C(=O)Cc4ccccc4)CC3)c(C#N)c2)cc1Cl [Example 2-7] | 102 | 50 | 54 | 6790 | –
Cc1cc(CC(=O)N2CCN(c3ncc(-c4ccc(C(=O)N(C)C)c(Cl)c4)cc3C#N)CC2)on1 [Example 2-8, 2-chloro-4-(5-cyano-6-{4-[(3-methylisoxazol-5-yl)acetyl]piperazin-1-yl}pyridin-3-yl)-N,N-dimethylbenzamide] | 46 | 4170 | 5 | – | No IP
CN(C)C(=O)c1ccc(-c2cnc(N3CCN(C(=O)C(=O)C(F)(F)F)CC3)c(C#N)c2)cc1Cl [Example 2-9, 2-chloro-4-{5-cyano-6-[4-(3,3,3-trifluoro-2-oxopropanoyl)piperazin-1-yl]pyridin-3-yl}-N,N-dimethylbenzamide] | 99 | 245 | 42 | 16600 | –
Cc1nonc1CC(=O)N1CCN(c2ncc(-c3ccc(C(=O)N(C)C)c(Cl)c3)cc2C#N)CC1 [Example 2-10, 2-chloro-4-(5-cyano-6-{4-[(4-methyl-1,2,5-oxadiazol-3-yl)acetyl]piperazin-1-yl}pyridin-3-yl)-N,N-dimethylbenzamide] | 63 | 2330 | 10 | – | No IP
CN(C)C(=O)c1ccc(-c2cnc(N3CCN(C(=O)[C@H](O)C(F)(F)F)CC3)c(C#N)c2)cc1Cl [Example 2-11, 2-chloro-4-(5-cyano-6-{4-[(2S)-3,3,3-trifluoro-2-hydroxypropanoyl]piperazin-1-yl}pyridin-3-yl)-N,N-dimethylbenzamide] | 77 | 1060 | 30 | 27900 | –
CCCCC(C)(C)C(=O)N1CCN(c2ncc(-c3ccc(C(=O)N(C)C)c(Cl)c3)cc2C#N)CC1 [Example 2-12, 2-chloro-4-{5-cyano-6-[4-(2,2-dimethylhexanoyl)piperazin-1-yl]pyridin-3-yl}-N,N-dimethylbenzamide] | 79 | 27 | 43 | 1750 | –
CN(C)C(=O)c1ccc(-c2cnc(N3CCN(C(=O)C4Cc5ccccc54)CC3)c(C#N)c2)cc1Cl (stereo not shown) [Example 2-13, 4-{6-[4-(bicyclo[4.2.0]octa-1,3,5-trien-7-ylcarbonyl)piperazin-1-yl]-5-cyanopyridin-3-yl}-2-chloro-N,N-dimethylbenzamide] | 108 | 57 | 50 | 8050 | –
Cc1noc(C)c1CC(=O)N1CCN(c2ncc(-c3ccc(C(=O)N(C)C)c(Cl)c3)cc2C#N)CC1 [Example 2-14, 2-chloro-4-(5-cyano-6-{4-[(3,5-dimethylisoxazol-4-yl)acetyl]piperazin-1-yl}pyridin-3-yl)-N,N-dimethylbenzamide] | 77 | 1350 | 23 | – | No IP
CN(C)C(=O)c1ccc(-c2cnc(N3CCN(C(=O)[C@@](C)(O)C(F)(F)F)CC3)c(C#N)c2)cc1Cl [Example 2-15, 2-chloro-4-(5-cyano-6-{4-[(2R)-3,3,3-trifluoro-2-hydroxy-2-methylpropanoyl]piperazin-1-yl}pyridin-3-yl)-N,N-dimethylbenzamide] | 101 | 171 | 58 | 13100 | –
CN(C)C(=O)c1ccc(-c2cnc(N3CCN(C(=O)[C@](C)(O)C(F)(F)F)CC3)c(C#N)c2)cc1Cl [Example 2-16, 2-chloro-4-(5-cyano-6-{4-[(2S)-3,3,3-trifluoro-2-hydroxy-2-methylpropanoyl]piperazin-1-yl}pyridin-3-yl)-N,N-dimethylbenzamide] | 94 | 242 | 58 | 13000 | –
CN(C)C(=O)c1ccc(-c2cnc(N3CCN(C(=O)C4(c5ccccc5)CC4)CC3)c(C#N)c2)cc1Cl [Example 2-17, 2-chloro-4-(5-cyano-6-{4-[(1-phenylcyclopropyl)carbonyl]piperazin-1-yl}pyridin-3-yl)-N,N-dimethylbenzamide] | 95 | 27 | 27 | 4360 | –
CN(C)C(=O)c1ccc(-c2cnc(N3CCN(C(=O)C(C)(C)c4ccccc4)CC3)c(C#N)c2)cc1Cl [Example 2-18, 2-chloro-4-{5-cyano-6-[4-(2-methyl-2-phenylpropanoyl)piperazin-1-yl]pyridin-3-yl}-N,N-dimethylbenzamide] | 99 | 15 | 43 | 16400 | –
CN(C)C(=O)c1ccc(-c2cnc(N3CCN(C(=O)[C@](C)(O)c4ccccc4)CC3)c(C#N)c2)cc1Cl [Example 2-19, 2-chloro-4-(5-cyano-6-{4-[(2R)-2-hydroxy-2-phenylpropanoyl]piperazin-1-yl}pyridin-3-yl)-N,N-dimethylbenzamide] | 77 | 27 | 27 | 60200 | –
CCC(O)(C(=O)N1CCN(c2ncc(-c3ccc(C(=O)N(C)C)c(Cl)c3)cc2C#N)CC1)C(F)(F)F (stereo not shown) [Example 2-20, 2-chloro-4-(5-cyano-6-{4-[2-hydroxy-2-(trifluoromethyl)butanoyl]piperazin-1-yl}pyridin-3-yl)-N,N-dimethylbenzamide] | 102 | 138 | 60 | 6070 | –
CN(C)C(=O)c1ccc(-c2cnc(N3CCN(C(=O)c4c(F)cccc4Cl)CC3)c(C#N)c2)cc1Cl [Example 2-21, 2-chloro-4-(6-{4-[(2-chloro-6-fluorophenyl)carbonyl]piperazin-1-yl}-5-cyanopyridin-3-yl)-N,N-dimethylbenzamide] | 59 | 147 | 41 | 6290 | –
CN(C)C(=O)c1ccc(-c2cnc(N3CCN(C(=O)Cc4c[nH]c5ccccc45)CC3)c(C#N)c2)cc1Cl [Example 2-22, 2-chloro-4-{5-cyano-6-[4-(1H-indol-3-ylacetyl)piperazin-1-yl]pyridin-3-yl}-N,N-dimethylbenzamide] | 83 | 186 | 54 | 30000 | –
CN(C)C(=O)c1ccc(-c2cnc(N3CCN(C(=O)C4(c5ccccc5)CCC4)CC3)c(C#N)c2)cc1Cl [Example 2-23, 2-chloro-4-(5-cyano-6-{4-[(1-phenylcyclobutyl)carbonyl]piperazin-1-yl}pyridin-3-yl)-N,N-dimethylbenzamide] | 97 | 43 | 47 | 1140 | –

— patent US10239849B2 (Merck Sharp & Dohme Corp., priority 2015, dated 2019)
